The source made the active and inactive calls. The rule behind the calls is not given here.
Key:
[1] = molecular target: Serine/threonine-protein kinase B-raf (Homo sapiens, UniProt P15056); assay: Inhibition of B-Raf by fluorescence anisotropy binding assay
Cytochrome P450 2C9 = Cytochrome P450 2C9 (Homo sapiens, UniProt P11712); assay: Inhibition of CYP2C9; type: ADME
Cytochrome P450 2D6 = Cytochrome P450 2D6 (Homo sapiens, UniProt P10635); assay: Inhibition of CYP2D6; type: ADME
[2] = molecular target: T1, Serine/threonine-protein kinase Sgk1 (Homo sapiens) (UniProt O00141); assay: Inhibition of SGK1 at 30 uM
T1 sequence (whole entry): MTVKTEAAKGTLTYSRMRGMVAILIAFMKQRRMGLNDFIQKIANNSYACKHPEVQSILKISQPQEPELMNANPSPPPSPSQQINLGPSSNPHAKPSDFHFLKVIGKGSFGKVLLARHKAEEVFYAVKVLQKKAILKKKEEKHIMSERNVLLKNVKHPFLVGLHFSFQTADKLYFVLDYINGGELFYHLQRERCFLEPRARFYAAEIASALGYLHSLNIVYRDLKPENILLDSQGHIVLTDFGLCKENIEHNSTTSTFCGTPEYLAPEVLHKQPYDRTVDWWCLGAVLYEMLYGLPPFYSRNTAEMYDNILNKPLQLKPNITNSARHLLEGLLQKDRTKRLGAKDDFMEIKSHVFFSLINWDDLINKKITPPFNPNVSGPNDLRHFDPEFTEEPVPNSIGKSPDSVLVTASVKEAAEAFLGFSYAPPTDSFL

[3] = molecular target: Tyrosine-protein kinase SYK (Homo sapiens) (UniProt P43405); assay: Inhibition of SYK at 30 uM
[4] = molecular target: RAC-alpha serine/threonine-protein kinase (Homo sapiens) (UniProt P31749); assay: Inhibition of AKT1 at 30 uM
[5] = molecular target: Insulin-like growth factor 1 receptor (Homo sapiens) (UniProt P08069); assay: Inhibition of IGF1R at 30 uM
[6] = molecular target: T2, Tyrosine-protein kinase ZAP-70 (Homo sapiens) (UniProt P43403); assay: Inhibition of ZAP70 at 30 uM
T2 sequence (whole entry): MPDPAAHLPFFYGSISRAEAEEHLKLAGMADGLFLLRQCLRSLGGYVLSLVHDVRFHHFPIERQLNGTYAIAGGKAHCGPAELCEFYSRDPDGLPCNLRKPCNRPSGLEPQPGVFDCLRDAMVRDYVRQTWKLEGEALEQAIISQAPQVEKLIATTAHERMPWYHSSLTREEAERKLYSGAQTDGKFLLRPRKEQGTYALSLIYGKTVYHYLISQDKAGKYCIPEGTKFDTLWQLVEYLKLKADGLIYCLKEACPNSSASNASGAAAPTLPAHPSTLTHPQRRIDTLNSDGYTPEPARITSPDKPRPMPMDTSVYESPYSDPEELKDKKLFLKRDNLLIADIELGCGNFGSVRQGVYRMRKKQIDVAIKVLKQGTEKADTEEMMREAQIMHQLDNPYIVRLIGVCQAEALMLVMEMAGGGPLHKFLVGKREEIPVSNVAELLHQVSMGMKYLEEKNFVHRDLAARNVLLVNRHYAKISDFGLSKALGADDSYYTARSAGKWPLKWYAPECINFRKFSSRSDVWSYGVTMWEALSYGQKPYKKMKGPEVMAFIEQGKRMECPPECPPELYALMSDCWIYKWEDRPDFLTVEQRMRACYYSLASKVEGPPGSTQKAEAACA

[7] = Selectivity for B-Raf over VEGFR2
[8] = molecular target: Tyrosine-protein kinase BTK (Homo sapiens) (UniProt Q06187); assay: Inhibition of BTK at 30 uM
[9] = molecular target: Glycogen synthase kinase-3 beta (Homo sapiens) (UniProt P49841); assay: Inhibition of GSK3b at 30 uM
[10] = molecular target: Cyclin-dependent kinase 2 (Homo sapiens) (UniProt P24941); assay: Inhibition of CDK2 at 30 uM
[11] = molecular target: Mitogen-activated protein kinase 1 (Homo sapiens) (UniProt P28482); assay: Inhibition of ERK2 at 30 uM
[12] = molecular target: T3, Inhibitor of nuclear factor kappa-B kinase subunit beta (Homo sapiens) (UniProt O14920); assay: Inhibition of IKK2 at 30 uM
T3 sequence (whole entry): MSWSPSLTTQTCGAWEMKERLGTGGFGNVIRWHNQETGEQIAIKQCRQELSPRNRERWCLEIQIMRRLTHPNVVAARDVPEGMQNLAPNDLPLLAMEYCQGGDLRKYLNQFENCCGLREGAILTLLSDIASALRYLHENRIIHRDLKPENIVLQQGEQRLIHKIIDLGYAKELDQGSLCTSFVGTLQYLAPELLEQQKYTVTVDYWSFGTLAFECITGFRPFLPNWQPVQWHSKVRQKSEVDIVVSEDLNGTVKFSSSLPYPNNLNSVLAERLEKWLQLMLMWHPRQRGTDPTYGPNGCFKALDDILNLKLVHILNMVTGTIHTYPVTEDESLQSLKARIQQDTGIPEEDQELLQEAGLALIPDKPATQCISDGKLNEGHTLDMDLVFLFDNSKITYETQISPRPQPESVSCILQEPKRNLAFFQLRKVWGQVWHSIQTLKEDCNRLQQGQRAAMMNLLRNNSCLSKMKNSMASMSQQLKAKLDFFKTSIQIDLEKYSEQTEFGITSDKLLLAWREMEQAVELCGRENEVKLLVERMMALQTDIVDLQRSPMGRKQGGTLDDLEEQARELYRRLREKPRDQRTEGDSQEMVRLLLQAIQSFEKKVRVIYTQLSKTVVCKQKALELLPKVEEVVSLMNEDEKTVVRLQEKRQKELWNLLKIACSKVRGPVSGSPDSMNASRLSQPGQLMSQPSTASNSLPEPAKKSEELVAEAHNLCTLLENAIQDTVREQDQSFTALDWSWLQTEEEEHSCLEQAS

[13] = Selectivity for B-Raf over c-Met
[14] = molecular target: Receptor tyrosine-protein kinase erbB-4 (Homo sapiens) (UniProt Q15303); assay: Inhibition of ERBB4 at 30 uM
Receptor tyrosine-protein kinase erbB-4 (Homo sapiens), sequence (Q15303 whole entry): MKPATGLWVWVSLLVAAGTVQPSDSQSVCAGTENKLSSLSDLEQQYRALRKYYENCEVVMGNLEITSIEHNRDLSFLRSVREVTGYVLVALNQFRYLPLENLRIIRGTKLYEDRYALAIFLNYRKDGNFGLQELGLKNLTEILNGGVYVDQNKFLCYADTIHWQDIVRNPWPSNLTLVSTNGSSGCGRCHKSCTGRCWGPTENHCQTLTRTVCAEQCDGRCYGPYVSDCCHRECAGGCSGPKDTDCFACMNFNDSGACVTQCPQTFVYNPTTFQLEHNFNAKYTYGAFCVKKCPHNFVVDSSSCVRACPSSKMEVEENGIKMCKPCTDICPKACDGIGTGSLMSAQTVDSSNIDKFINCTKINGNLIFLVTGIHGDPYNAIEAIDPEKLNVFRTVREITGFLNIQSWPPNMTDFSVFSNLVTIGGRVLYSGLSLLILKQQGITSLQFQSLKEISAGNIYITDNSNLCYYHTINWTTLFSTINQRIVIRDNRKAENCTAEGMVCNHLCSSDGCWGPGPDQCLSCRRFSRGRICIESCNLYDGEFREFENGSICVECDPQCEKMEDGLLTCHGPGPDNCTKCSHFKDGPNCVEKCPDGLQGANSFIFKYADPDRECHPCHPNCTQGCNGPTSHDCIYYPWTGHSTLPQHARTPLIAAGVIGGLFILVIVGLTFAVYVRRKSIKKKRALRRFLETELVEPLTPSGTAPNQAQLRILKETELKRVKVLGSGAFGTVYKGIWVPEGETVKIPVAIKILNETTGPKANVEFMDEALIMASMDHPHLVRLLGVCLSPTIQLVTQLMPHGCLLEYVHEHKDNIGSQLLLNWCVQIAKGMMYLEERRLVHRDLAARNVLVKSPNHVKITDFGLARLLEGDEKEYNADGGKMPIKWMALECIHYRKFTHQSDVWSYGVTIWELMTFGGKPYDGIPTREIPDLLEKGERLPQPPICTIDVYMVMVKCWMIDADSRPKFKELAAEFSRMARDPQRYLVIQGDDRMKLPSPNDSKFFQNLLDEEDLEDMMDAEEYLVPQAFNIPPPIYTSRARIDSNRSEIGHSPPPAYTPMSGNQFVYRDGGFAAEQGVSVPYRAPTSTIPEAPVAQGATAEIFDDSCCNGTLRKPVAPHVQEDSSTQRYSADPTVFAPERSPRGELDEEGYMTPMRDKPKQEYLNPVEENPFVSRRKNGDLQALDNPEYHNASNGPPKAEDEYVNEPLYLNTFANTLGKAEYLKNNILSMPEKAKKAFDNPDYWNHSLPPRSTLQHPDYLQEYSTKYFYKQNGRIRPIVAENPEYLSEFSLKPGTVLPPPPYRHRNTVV

Serine/threonine-protein kinase B-raf, sequence (P15056 whole entry): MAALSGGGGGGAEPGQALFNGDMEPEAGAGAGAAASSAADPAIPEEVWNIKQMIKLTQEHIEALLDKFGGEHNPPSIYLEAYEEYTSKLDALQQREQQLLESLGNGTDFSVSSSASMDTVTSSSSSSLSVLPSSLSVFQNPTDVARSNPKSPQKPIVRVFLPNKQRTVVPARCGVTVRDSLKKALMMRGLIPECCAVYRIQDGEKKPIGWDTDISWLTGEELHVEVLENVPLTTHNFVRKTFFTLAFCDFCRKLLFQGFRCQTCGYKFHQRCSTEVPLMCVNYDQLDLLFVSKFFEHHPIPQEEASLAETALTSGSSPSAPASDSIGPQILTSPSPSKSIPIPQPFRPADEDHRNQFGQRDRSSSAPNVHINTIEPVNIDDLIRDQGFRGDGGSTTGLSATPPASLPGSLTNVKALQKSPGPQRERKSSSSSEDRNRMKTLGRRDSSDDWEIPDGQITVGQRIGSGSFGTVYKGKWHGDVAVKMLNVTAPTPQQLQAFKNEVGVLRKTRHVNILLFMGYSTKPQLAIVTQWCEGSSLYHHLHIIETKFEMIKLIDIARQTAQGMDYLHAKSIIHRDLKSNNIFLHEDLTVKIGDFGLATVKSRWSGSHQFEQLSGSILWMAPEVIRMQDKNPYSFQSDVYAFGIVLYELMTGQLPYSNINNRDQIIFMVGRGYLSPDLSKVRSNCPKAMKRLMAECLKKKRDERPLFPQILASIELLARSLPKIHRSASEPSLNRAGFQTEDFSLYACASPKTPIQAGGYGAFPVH
Cytochrome P450 2D6, sequence (P10635 whole entry): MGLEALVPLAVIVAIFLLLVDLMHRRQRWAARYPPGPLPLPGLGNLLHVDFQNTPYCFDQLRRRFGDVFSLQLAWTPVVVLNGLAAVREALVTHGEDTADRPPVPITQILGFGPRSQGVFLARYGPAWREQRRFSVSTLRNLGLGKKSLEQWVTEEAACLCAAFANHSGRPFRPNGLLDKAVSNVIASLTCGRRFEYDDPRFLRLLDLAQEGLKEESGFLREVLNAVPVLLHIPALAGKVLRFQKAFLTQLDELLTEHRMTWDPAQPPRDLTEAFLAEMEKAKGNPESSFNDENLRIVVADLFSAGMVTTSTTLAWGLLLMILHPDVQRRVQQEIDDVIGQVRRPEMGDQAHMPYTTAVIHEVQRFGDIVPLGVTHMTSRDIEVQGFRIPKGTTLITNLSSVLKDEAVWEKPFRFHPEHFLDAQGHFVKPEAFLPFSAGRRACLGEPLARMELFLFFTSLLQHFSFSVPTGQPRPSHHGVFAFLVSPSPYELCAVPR
Cytochrome P450 2C9, sequence (P11712 whole entry): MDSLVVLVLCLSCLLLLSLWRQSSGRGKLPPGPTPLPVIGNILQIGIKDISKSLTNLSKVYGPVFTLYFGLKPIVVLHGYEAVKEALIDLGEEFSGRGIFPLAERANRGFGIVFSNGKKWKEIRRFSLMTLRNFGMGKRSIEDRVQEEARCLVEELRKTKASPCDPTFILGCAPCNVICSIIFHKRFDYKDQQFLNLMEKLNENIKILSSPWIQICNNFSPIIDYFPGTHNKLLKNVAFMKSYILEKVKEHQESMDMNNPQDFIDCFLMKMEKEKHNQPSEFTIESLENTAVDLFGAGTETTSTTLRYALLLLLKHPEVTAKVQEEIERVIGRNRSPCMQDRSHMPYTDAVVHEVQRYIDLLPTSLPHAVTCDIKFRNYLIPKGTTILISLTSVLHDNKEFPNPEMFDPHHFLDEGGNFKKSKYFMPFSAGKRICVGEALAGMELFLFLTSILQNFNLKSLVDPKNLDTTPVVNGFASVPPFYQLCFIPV
RAC-alpha serine/threonine-protein kinase (Homo sapiens), sequence (P31749 whole entry): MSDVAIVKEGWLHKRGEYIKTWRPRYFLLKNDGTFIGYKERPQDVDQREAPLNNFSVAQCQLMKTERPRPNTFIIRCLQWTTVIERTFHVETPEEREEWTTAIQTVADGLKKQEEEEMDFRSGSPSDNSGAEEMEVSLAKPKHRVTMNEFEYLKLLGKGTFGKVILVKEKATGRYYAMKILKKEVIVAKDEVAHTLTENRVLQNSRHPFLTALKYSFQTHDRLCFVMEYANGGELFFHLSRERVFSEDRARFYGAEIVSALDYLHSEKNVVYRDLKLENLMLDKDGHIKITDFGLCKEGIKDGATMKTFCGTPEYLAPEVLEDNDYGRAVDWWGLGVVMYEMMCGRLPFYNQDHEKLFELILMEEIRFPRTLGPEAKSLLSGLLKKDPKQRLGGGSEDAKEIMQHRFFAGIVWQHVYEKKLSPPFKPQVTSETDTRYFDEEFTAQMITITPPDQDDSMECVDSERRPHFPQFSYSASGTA
Insulin-like growth factor 1 receptor (Homo sapiens), sequence (P08069 31-736 limits assumed): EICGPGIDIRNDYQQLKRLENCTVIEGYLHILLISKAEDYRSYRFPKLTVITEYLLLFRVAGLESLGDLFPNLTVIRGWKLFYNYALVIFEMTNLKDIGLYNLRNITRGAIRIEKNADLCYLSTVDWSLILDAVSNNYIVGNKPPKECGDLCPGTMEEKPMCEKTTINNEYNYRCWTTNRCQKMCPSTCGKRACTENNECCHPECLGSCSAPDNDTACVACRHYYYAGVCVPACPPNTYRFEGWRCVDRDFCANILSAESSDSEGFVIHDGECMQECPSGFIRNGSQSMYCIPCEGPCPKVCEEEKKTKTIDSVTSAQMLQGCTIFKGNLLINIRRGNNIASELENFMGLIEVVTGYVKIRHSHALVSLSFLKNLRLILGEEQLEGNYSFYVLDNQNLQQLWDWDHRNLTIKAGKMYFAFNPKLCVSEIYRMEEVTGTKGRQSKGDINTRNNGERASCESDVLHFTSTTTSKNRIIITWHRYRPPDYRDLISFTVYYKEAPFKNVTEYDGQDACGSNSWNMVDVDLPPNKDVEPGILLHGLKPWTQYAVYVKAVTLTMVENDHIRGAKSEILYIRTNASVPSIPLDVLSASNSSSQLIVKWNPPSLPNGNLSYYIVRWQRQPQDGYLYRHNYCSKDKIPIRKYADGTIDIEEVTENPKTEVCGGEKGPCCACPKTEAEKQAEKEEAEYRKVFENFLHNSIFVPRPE
Insulin-like growth factor 1 receptor (Homo sapiens), sequence (P08069 741-1367 limits assumed): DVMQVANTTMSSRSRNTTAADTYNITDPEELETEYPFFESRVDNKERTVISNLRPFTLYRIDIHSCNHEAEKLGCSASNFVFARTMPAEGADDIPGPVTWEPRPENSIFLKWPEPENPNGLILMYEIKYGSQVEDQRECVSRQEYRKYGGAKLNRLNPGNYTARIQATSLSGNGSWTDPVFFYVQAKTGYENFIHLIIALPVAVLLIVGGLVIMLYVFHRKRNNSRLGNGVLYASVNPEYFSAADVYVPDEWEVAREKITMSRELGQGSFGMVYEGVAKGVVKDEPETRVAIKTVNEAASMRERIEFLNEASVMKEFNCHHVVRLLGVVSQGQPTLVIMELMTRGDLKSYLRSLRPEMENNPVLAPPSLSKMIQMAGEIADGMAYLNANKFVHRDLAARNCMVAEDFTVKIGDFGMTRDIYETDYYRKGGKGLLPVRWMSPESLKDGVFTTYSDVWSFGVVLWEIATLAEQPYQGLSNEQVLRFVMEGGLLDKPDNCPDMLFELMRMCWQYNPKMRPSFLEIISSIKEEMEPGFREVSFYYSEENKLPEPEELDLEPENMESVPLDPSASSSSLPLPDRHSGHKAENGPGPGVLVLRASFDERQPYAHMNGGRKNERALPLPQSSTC

`CCn1cc(-c2ccnc3[nH]ccc23)c(-c2cccc(NC(=O)Nc3c(F)cccc3F)c2)n1` gave an IC50 [1] of 25.7 nM.

`CCn1cc(-c2ccnc3[nH]c(C(=O)O)cc23)c(-c2cccc(NC(=O)Nc3ccccc3)c2)n1` showed an IC50 [1] of 45.7 nM.

`CCn1cc(-c2ccnc3[nH]cc(Br)c23)c(-c2cccc(NC(=O)Nc3ccccc3)c2)n1` gave an IC50 [1] of 79.4 nM.

With `CCOC(=O)c1cc2c(-c3cn(CC)nc3-c3cccc(NC(=O)Nc4ccccc4)c3)ccnc2[nH]1` the IC50 [1] was 33.9 nM.

With `CCn1cc(-c2ccnc3[nH]ccc23)c(-c2cccc(NC(=O)Nc3ccc(Cl)c(C(F)(F)F)c3)c2)n1` the IC50 [1] was 5.4 nM.

Work on `CCn1cc(-c2ccnc3[nH]ccc23)c(-c2cccc(NC(=O)Nc3cccc(OC)c3)c2)n1` yielded an IC50 (Cytochrome P450 2C9) of 316 nM, an IC50 (Cytochrome P450 2D6) of 200 nM and an IC50 [1] of 2.1 nM.

In the case of `CCn1cc(-c2ccnc3[nH]ccc23)c(-c2cccc(NC(=O)Nc3ccc(C(F)(F)F)cc3)c2)n1`, the Activity [2] is reported as “inactive”, the Activity [3] is reported as “inactive” and the Activity [4] is reported as “inactive”. The Activity [5] was “inactive”, the Activity [6] was “inactive” and the fold change (FC) [7] was 100. The Activity [8] was “inactive”, the Activity [9] was “inactive” and the Activity [10] was “inactive”. For the same molecule, the IC50 (Cytochrome P450 2C9) was 1260 nM, the IC50 (Cytochrome P450 2D6) was 5010 nM and the Activity [11] was “inactive”. For the same molecule, the Activity [12] was “inactive”, the fold change (FC) [13] was 100 and the Activity [14] was “inactive”.

In the case of `CCn1cc(-c2ccnc3[nH]ccc23)c(-c2cccc(NC(=O)NC3CCCCC3)c2)n1`, the IC50 [1] is reported as 41.7 nM.

`CCn1cc(-c2ccnc3[nH]ccc23)c(-c2cccc(NC(=O)Nc3cc(C(F)(F)F)ccc3F)c2)n1` gave an IC50 [1] of 3.9 nM.
